Consider 12 compounds from ChEMBL document CHEMBL5113535, “The Design, Synthesis, and Evaluation of Novel 9-Arylxanthenedione-Based Allosteric Modulators for the δ-Opioid Receptor” (J Med Chem, 2022).

SMILES strings stand for the structures.

The target of the first assay is T1, Delta-type opioid receptor (Homo sapiens, UniProt P41143). The assay can be described thus: Agonist activity at human DOR expressed in CHO cells assessed as […] in ERK1/2 phosphorylation level. The class given is functional, cell-based.
T1 sequence (P41143 whole entry): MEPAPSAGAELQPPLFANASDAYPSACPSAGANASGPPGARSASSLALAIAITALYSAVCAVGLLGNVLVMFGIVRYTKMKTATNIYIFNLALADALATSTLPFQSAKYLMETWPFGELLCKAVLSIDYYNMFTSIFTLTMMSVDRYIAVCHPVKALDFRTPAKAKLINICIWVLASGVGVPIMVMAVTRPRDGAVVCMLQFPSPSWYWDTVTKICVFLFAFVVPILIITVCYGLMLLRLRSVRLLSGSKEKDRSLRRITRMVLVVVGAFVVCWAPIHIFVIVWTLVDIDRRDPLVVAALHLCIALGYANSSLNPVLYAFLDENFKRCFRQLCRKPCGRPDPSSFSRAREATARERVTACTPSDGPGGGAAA
Settings: not given
What is called EC50 is the concentration at which the effect is half-maximal. As to `CN1CC[C@@]2(c3cccc(O)c3)Cc3nc4ccccc4cc3C[C@@H]2C1`, the EC50 was 31.6 nM.
Still for that read-out and setting: the value for `C=CCN1C[C@H](C)N([C@H](c2ccc(C(=O)NCC)cc2)c2cccc(OC)c2)C[C@H]1C` was 43.7 nM.

A further assay addresses T1, Delta-type opioid receptor. As to conditions: CHO, filed as modulator, time 1.0 hrs.
As usually defined, the pKb is −log10 of the Kb, conventionally taken in molar units. High values mean a low Kb, low ones a high Kb. Compound `CC1(C)CC(=O)C2=C(C1)OC1=C(C(=O)CC(C)(C)C1)C2c1ccc(OCc2ccccc2C2CC2)cc1` showed a pKb of 5.53.
Still for that read-out and setting: the value for `CCc1ccccc1COc1ccc(C2C3=C(CC(C)(C)CC3=O)OC3=C2C(=O)CC(C)(C)C3)cc1` was 5.5.
Still for that read-out and setting: the value for `CC1(C)CC(=O)C2=C(C1)OC1=C(C(=O)CC(C)(C)C1)C2c1ccc(OCC2CCC2)cc1` was 5.72.
Still for that read-out and setting: the value for `C#Cc1ccccc1COc1ccc(C2C3=C(CC(C)(C)CC3=O)OC3=C2C(=O)CC(C)(C)C3)cc1` was 6.18; that for `CC(C)c1ccccc1COc1ccc(C2C3=C(CC(C)(C)CC3=O)OC3=C2C(=O)CC(C)(C)C3)cc1` was 6.08; that for `CC1(C)CC(=O)C2=C(C1)OC1=C(C(=O)CC(C)(C)C1)C2c1ccc(OCC2CCCC2)cc1` was 5.57.
For `Cc1ccccc1COc1ccc(C2C3=C(CC(C)(C)CC3=O)OC3=C2C(=O)CC(C)(C)C3)nc1`, the negative logarithm of the Kb (pKb) is 4.89.
The same measure, in the same setting: the value for `CC1CC(=O)C2=C(C1)OC1=C(C(=O)CC(C)C1)C2c1ccc(OCC2CCCCC2)cc1` (configuration not stated) was 5.83.
On the same count and under the same terms, the value for `CC1(C)CC(=O)C2=C(C1)OC1=C(C(=O)CC(C)(C)C1)C2c1ccc(OCc2ccccc2Br)cc1` was 5.9; that for `Cc1ccccc1COc1ccc(C2C3=C(CC(C)(C)CC3=O)OC3=C2C(=O)CC(C)(C)C3)cc1F` was 6.01.
